Tests used:
NR4A1 = target: T1, NR4A1 (Homo sapiens, UniProt P22736); assay: GAL4-NR4A1 / UAS5-luc transactivation reporter assay in Panc1 cells; type: cell-based; conditions: Panc1 cells transfected with GAL4-NR4A1 (full length) and UAS5-luc reporter; FIG. 2A/2B
T1 construct: Panc1 cells were transfected with a GAL4-NR4A1 (full length) construct; expressed in transfected cells; host or cells: Panc1
Excerpt: (§1) These compounds bind the receptor and are receptor antagonists. Thus, C-DIMs are the first NR4A1 antagonists that inhibit NR4A1-mediated pro-oncogenic genes/pathways. The transactivation and NR4A1 binding of the p-hydroxyphenyl (DIM-C-pPhOH) analog was initially investigated.

[1] = target: ligand binding domain (LBD) of NR4A1 (Homo sapiens, UniProt P22736); assay: Fluorescence quenching binding assay with His-NR4A1 (LBD); conditions: His-tagged ligand binding domain of NR4A1
ligand binding domain (LBD) of NR4A1, sequence (P22736 360-595 limits assumed): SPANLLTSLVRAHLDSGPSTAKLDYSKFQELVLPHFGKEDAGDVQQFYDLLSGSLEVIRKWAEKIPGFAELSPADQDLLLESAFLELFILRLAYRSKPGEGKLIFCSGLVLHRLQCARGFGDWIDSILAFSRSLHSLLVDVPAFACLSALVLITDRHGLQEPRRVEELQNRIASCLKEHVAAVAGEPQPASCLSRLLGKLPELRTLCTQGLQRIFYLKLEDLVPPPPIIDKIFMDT
Excerpt: as §1
Using a fluorescent binding assay, a library of C-DIM compounds were screened. Specifically, 14 different C-DIM analogs with pPhX on the bridging carbon (i.e., as R8) were screened, where X was CF3, Br, F, t-Butyl, OCH3, N-dimethylamino, H, OH, C6H5, CN, CH3, Cl, I and CO2Me. Each analog bound the ligand binding domain of NR4A1 and KD values for binding varied from 0.1-0.71 μM.

MDA-MB-231 cells = assay: Migration/invasion of MDA-MB-231 cells; type: cell-based, human; conditions: MDA-MB-231 cells (FIG. 15)
Excerpt: FIG. 15 illustrates that the NR4A1 antagonist DIM-C-pPhCO2ME inhibits migration/invasion of MDA-MB-231 cells.
(§2) Assessing downstream effects of the above β1-integrin inhibition, knockdown of NR4A1 (TR3) by RNA interference decrease migration and invasion performance of SKBr3 and MDA-MB-231 cells (FIG. 14). […] Moreover, the effects of other NR4A1 antagonists on migration and invasion of the breast cancer cells were investigated.

SKBR3 cells = assay: Migration/invasion of SKBR3 cells; type: cell-based, human; conditions: SKBR3 cells (FIGS. 16, 17)
Excerpt: FIG. 16 illustrates that the NR4A1 antagonist DIM-C-pPhCO2ME inhibits migration/invasion of SKBR3 cells.
as §2

pancreatic cancer cells [2] = assay: Boyden Chamber invasion assay, pancreatic cancer cells; type: cell-based; conditions: 20 μM, p<0.001 (FIGS. 4A, 4B)
Excerpt: FIGS. 4A and 4B illustrate that DIM-C-pPhOH decreases pancreatic cancer cell invasion in a Boyden Chamber assay. Significant inhibition with p<0.001 indicated with “#”.
Previous studies indicate that in pancreatic cancers, NR4A1 regulates pro-survival genes (e.g. survivin) through an Sp1/p300/NR4A1 complex in which Sp1 binds promoter DNA. […] A third pathway involves activation of mTOR which is due to inactivation of p53 by binding NR4A1 and this pathway is only observed in cancer cell lines and tumors expressing wild-type p53.

β1-integrin [3] = assay: Expression of β1-integrin and related gene products, pancreatic cancer cells; type: cell-based; conditions: 20 μM (FIG. 7)
Procedure: (§3) Discovery of NR4A1-regulated pro-invasion/migration genes was determined using Illumina Human HT-12V4 Beadchip arrays (FIGS. 5A and 5B). Knockdown of NR4A1 in Panc1 cells decreased expression of β1-integrin which is known to play an important role in cell migration and invasion. […] The loss of α5-integrin may be indirect since it was previously reported that β1-integrin silencing by RNAi decreased α5-integrin. […] Decreased adhesion to fibronectin-coated plates was also observed in pancreatic cancer cells treated with DIM-C-pPhOH (FIG. 9), confirming that siNR4A1 and NR4A1 antagonists decrease expression of β1-integrin. This represents a novel approach for targeting this pro-oncogenic factor in pancreatic cancer.

pancreatic cancer cells [4] = assay: Adhesion to human fibronectin-coated plates, pancreatic cancer cells; type: cell-based; conditions: 20 μM, p<0.001 / p<0.005 (FIG. 9)
Procedure: Significant inhibition with p<0.001 indicated with “#” and significant inhibition with p<0.005 indicated with “***”.
as §3

[5] = tested on: L3.6pL orthotopic xenograft; assay: L3.6pL orthotopic xenograft in athymic nude mice, tumor lysates by Western blot; type: in vivo; conditions: 30 mg/kg/d, compared to corn oil control; lysate from two animals (FIG. 10)
Excerpt: The tumor lysate from two animals is shown.

β1-integrin [6] = assay: β1-integrin expression, MDA-MB-231 breast cancer cells; type: cell-based, human; conditions: MDA-MB-231 cells (FIGS. 11, 12)
β1-integrin [7] = assay: β1-integrin expression, SKBR3 breast cancer cells; type: cell-based, human; conditions: SKBR3 cells (FIGS. 11, 12)
β1-integrin [8] = assay: β1-integrin expression, MCF-7 breast cancer cells; type: cell-based; conditions: MCF-7 cells
β1-integrin [9] = assay: β1-integrin expression, RKO colon cancer cells; type: cell-based; conditions: RKO colon cancer cells (FIG. 13)
β1-integrin [10] = assay: β1-integrin expression, SW480 colon cancer cells; type: cell-based; conditions: SW480 colon cancer cells (FIG. 13)
pancreatic cancer cells [11] = conditions: stated with previous studies; cited from earlier work
[12] = tested on: L3.6pL orthotopic xenograft; conditions: athymic nude mice, orthotopic model; previous studies; cited from earlier work

T1 sequence (P22736 whole entry, the tested form may be a part): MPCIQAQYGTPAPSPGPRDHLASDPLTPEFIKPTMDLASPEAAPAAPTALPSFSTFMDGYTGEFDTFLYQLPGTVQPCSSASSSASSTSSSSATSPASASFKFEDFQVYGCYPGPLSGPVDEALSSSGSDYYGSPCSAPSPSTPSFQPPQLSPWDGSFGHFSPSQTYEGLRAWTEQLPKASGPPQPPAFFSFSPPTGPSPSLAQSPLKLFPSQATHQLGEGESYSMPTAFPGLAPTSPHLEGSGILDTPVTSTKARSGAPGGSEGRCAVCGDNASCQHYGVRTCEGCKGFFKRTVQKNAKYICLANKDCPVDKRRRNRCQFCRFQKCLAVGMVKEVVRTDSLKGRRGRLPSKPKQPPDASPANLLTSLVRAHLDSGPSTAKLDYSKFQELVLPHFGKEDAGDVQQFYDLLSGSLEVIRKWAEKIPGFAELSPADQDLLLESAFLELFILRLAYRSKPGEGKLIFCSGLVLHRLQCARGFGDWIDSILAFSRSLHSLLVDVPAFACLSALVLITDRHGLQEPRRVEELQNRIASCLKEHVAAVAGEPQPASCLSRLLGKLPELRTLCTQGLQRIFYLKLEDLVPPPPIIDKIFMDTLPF

luciferase activity (NR4A1-dependent transactivation) (NR4A1)	binding to His-NR4A1 (LBD), fluorescence quenching [1]	Compound	migration and invasion (MDA-MB-231 cells)	migration and invasion (SKBR3 cells)	invasion (pancreatic cancer cells [2])	β1-integrin and related gene products (β1-integrin [3])	cell adhesion to human fibronectin-coated plates (pancreatic cancer cells [4])	expression of α5-integrin in tumor lysates [5]	expression of β1-integrin in tumor lysates [5]	β1-integrin expression (β1-integrin [6])	β1-integrin expression (β1-integrin [7])	β1-integrin expression (β1-integrin [8])	β1-integrin expression (β1-integrin [9])	β1-integrin expression (β1-integrin [10])	apoptosis (pancreatic cancer cells [11])	pancreatic cancer cell growth (pancreatic cancer cells [11])	tumor growth [12]
inhibits NR4A-dependent transactivation	binds the LBD of NR4A1	COC(=O)c1ccc(C(c2c[nH]c3ccccc23)c2c[nH]c3ccccc23)cc1 [DIM-C-pPhCO2Me]	inhibits migration and invasion	inhibits migration and invasion	–	–	–	–	–	–	–	–	–	–	–	–	–
decreased luciferase activity	quenches fluorescence	Oc1ccc(C(c2c[nH]c3ccccc23)c2c[nH]c3ccccc23)cc1 [DIM-C-pPhOH, 1,1-bis(3′-indolyl)-1-(p-hydroxyphenyl)methane]	–	–	decreased invasion	decreases β1-integrin and related gene products	decreases pancreatic cancer cell adhesion	decreases expression	decreases expression	decreased β1-integrin expression	decreased β1-integrin expression	decreased β1-integrin expression	decreases β1-integrin expression	decreases β1-integrin expression	induce apoptosis	inhibit pancreatic cancer cell growth	inhibits tumor growth

Source: patent US20160303081A1, “INHIBITORS OF BETA1-INTEGRIN AND METHODS OF USE” (The Texas A&M University System, priority 2015, published 2016)
